Data set [1] in a line: in vitro. The note with it: human, Cell viability. From the text:
(§1) Cell viability and cell morphology were examined to evaluate the toxicity of excipients on retinal pigment epithelial cells. The human retina cell line used in these experiments is the ARPE-19 cell line (human adult-derived retinal pigmented epithelial cells). […] They form tight-junctions with transepithelial resistance of monolayers (Dunn K C et al., supra). From a molecular standpoint, it appears that ARPE-19 express a huge pattern of genes similar to those expressed by human RPE from fresh explant which could account for their physiological function (Klimanskaya I. et al., “Derivation and comparative assessment of retinal pigment epithelium from human embryonic stem cells using transcriptomics”, Cloning and Stem Cells, 2004, 6(3):217-45).
(§2) ARPE-19 cells are widely used as a retinal model that resemble physiological properties of RPE cells. Similar methods of culturing ARPE-19 cells and cytotoxicity assays can be found in Yeung et al., “Cytotoxicity of triamcinolone on cultured human retinal pigment epithelial cells: comparison with dexamethasone and hydrocortisone”, Jpn J. Ophthalmol, 2004; 48:236-242. Cell viability and cell morphology were examined using conventional colormetric and visual methods. Viability and morphology measurements were obtained at 24 hours, 48 hours, and 72 hours after exposure to an excipient composition.
(§3) To assess cell viability, mitochondrial metabolism was quantified through conventional colorometric assays (i.e., the MTT assay). This calorimetric assay utilizes 3-(4,5-dimethylthiazol-2-yl)-2,5-diphenyltetrazolium bromide (MTT) and correlates mitochondrial metabolism and cell viability through measurement of dehydrogenase activity which converts a substrate into crystal. More specifically, the assay measures the activity of living cells through mitochondrial dehydrogenases. When dissolved in culture cell medium, MTT solution appears dark orange. Mitochondrial dehydrogenases of viable cells degrade MTT by cleaving the tetrazolium ring yielding to formation of a purple formazan crystal, which is insoluble in water. Crystals are subsequently dissolved in isopropanol solution. A resulting purple solution is spectrophotometrically measured. Cell viability is relative to amount of formazan and calculated as a percentage of remaining treated compared to non-treated cells.
(§4) Results from the MTT assay were expressed as a percentage of cell viability calculated using the following equation: % cell viability=ODtest/ODcontrol×100.
(§5) For each experiment, one concentration was performed in triplicate. Each point was spectrophotometrically read twice. Average of readings was calculated, then average from these 3 values was determined.
(§6) After 3 experiments were independently completed under the same conditions, a graph was plotted with cell viability expressed as a function of concentration (dose response) and for various incubation period (time course). The IC50 was then estimated based on the graphed data.
(§7) More specifically, cell density in 24-multiwell plates was observed on the day of the experiment to check if confluence of the cells was reached. Aliquots of MTT concentrated solutions were removed from a freezer at −20° C. and thawed at room temperature. Cell medium was warmed at 37° C. before use. Appropriated tubes for diluting compounds were prepared. Higher concentrations of each excipient agent was prepared. Serial dilution was then performed in cell medium (DMEM:F12+10% FBS).
(§8) Cell culture medium in the 24-well plate was removed using vacuum-pump. Cells were then stimulated with 0.5 ml final volume for each concentration of one given excipient agent. Distribution of the excipient-containing solution was performed using automated pipet-aid in sterile environment (under PSM) or not depending on time of compounds and duration of incubation.
(§9) After stimulation, cells were replaced in a CO2 incubator for the required time of exposure.

Data set [2] relates to ARPE-19 cells. As to the kind of experiment: MTT cell viability assay on ARPE-19 cells. The note with it: for Reduction of cell survival: 24, 48 and 72 hour time points.
Source text: as §1, §2, §3, §4, §5, §6, §7, §8, §9
A general note: Tetrazolium assays rely on reduction of a dye to a coloured formazan, in cell work by metabolically active cells.

Data set [3] in a line: pH of excipient-containing incubating solutions. The class given is physicochemical. As to the method:
(§10) For each concentration of tested compound, pH and osmolarity parameters were measured.

Data set [4] is described as follows: Osmolarity of excipient-containing incubating solutions. It is filed as physicochemical. On the procedure: Osmolarity was measured using osmometer type 13/13DR from Roebling (Berlin, GR).
as §10

With `CCCCCCCC/C=C\CCCCCCCC(=O)OCCOCC(OCCO)C1OCC(OCCO)C1OCCO` (stereo not drawn) [Polysorbate 80, polysorbate 80], in data set [1] (Mean (%)), the viability at 24 h, 0.01 % turned out to be 93.5%; the viability at 24 h, 0.02 % was 98.6%; the viability at 24 h, 0.04 % was found to be 104%; the viability at 24 h, 0.06 % stood at 101%. For the same compound, in data set [1] (Mean (%)), the viability at 24 h, 0.08 % came to 82.3%; the viability at 24 h, 0.1 % worked out at 3.9%; the viability at 48 h, 0.01 % is 110%; the viability at 48 h, 0.02 % is 118%. Further, in data set [1] (Mean (%)), the viability at 48 h, 0.04 % was found to be 125%; the viability at 48 h, 0.06 % was found to be 128%; the viability at 48 h, 0.08 % amounted to 72.9%; the viability at 48 h, 0.1 % stood at 0.5%. For the same compound, in data set [1] (Mean (%)), the viability at 72 h, 0.01 % was determined as 120%; the viability at 72 h, 0.02 % was 126%; the viability at 72 h, 0.04 % was 142%; the viability at 72 h, 0.06 % was found to be 157%. Also, in data set [1] (Mean (%)), the viability at 72 h, 0.08 % stood at 74.8% and the viability at 72 h, 0.1 % amounted to 0.6%. In data set [1] (experiments 1, 2, 3), the viability at 24 h, 0.01 % was 90.3%; the viability at 24 h, 0.02 % amounted to 91.8%; the viability at 48 h, 0.01 % stood at 109%; the viability at 48 h, 0.02 % is 122%. Also, in data set [1] (experiments 1, 2, 3), the viability at 48 h, 0.04 % was found to be 126%; the viability at 72 h, 0.01 % came out at 122%; the viability at 72 h, 0.02 % turned out to be 129%; the viability at 72 h, 0.04 % was 138%. In addition, the viability at 72 h, 0.06 % in data set [1] (experiments 1, 2, 3) is 148%. Besides, in data set [2] (0.1% (w/v)), the Cell survival result is given as “substantially zero cell survival”. In addition, in data set [2] (0.1% (w/v), listed as Tween80), the Cell survival entry is on record as “lethality”. The “pH of excipient dilution” value in data set [3] (0.01% in culture medium) is 7.5. Also, in data set [3] (0.02% in culture medium), the “pH of excipient dilution” value worked out at 7.6. In addition, the “pH of excipient dilution” value in data set [3] (0.04% in culture medium) stood at 7.5. Further, the “pH of excipient dilution” value in data set [3] (0.06% in culture medium) is listed as 7.5. In addition, the “pH of excipient dilution” value in data set [3] (0.08% in culture medium) stood at 7.5. Also, the “pH of excipient dilution” value in data set [3] (0.1% in culture medium) amounted to 7.6. For the same compound, the “Osmolarity of excipient dilution” value in data set [4] (0.01% in culture medium) is 310 mOsm. In addition, the “Osmolarity of excipient dilution” value in data set [4] (0.02% in culture medium) was determined as 307 mOsm. In addition, in data set [4] (0.04% in culture medium), the “Osmolarity of excipient dilution” value was 313 mOsm. The “Osmolarity of excipient dilution” value in data set [4] (0.06% in culture medium) is 346 mOsm. Moreover, the “Osmolarity of excipient dilution” value in data set [4] (0.08% in culture medium) turned out to be 390 mOsm. Besides, in data set [4] (0.1% in culture medium), the “Osmolarity of excipient dilution” value was 523 mOsm.

For the compound hyaluronic acid [HA], in data set [2], the Cell viability is about 25%.

Consider “hydroxypropyl gamma-cyclodextrin [Cavasol]”, for which the “Effect on both cell parameters (viability, morphology)” value in data set [2] was “no measurable effect on both cell parameters”. For the same compound, the Viable cells entry in data set [2] is “approximately 80%”. The “Percentage of living cells” value in data set [2] (0.05 to 10%, after recovery (later than 24 h)) was over 80%. For the same compound, the “Reduction of cell survival” value in data set [2] (0.1% (w/v)) is given as at most 10%. Moreover, the “Cell survival (% of the initial value)” value in data set [2] (10% (w/v)) is given as “about 80%”. In data set [2] (at the tested concentrations and incubation times), the “IC50 (cell viability), statement in words” value was “not possible to determine the IC50”. The “pH of excipient dilution” value in data set [3] (0.1% in culture medium), in data set [3] (0.5% in culture medium), in data set [3] (1% in culture medium), in data set [3] (5% in culture medium), in data set [3] (10% in culture medium) and in data set [3] (20% in culture medium) was 7.6 in each case.

In the case of hydroxypropylmethyl cellulose [HPMC], in data set [2], the “Cell viability, experiment 3” value was 77.4% and the “Decrease of cell viability” value is recorded as 20-40%.

In the case of “sulfobutyl ether 4 beta-cyclodextrin [Captisol]”, the “Reduction of cell survival” value in data set [2] (0.1% (w/v)) is recorded as 10-20%. In addition, the “Cell survival (% of the initial value)” value in data set [2] (5% (w/v)) is reported as 70-80%. Further, the Cell survival in data set [2] (10% (w/v), 24 hour time point) is 50-60%. The “pH of excipient dilution” value in data set [3] (0.1% in culture medium) is on record as 7.6; in data set [3] (0.5% in culture medium) it was 7.6; in data set [3] (1% in culture medium) it was 7.6; in data set [3] (5% in culture medium), 7.6; in data set [3] (10% in culture medium), 7.7; in data set [3] (20% in culture medium), 7.7. Also, the “Osmolarity of excipient dilution” value is given as 310 mOsm in data set [4] (0.1% in culture medium); 318 mOsm in data set [4] (0.5% in culture medium); 333 mOsm in data set [4] (1% in culture medium); 408 mOsm in data set [4] (5% in culture medium); 518 mOsm in data set [4] (10% in culture medium); “far exceeds physiological osmolarity range” in data set [4] (20% in culture medium, listed as Sulfobutylether 4 beta-CD). In addition, the “Osmolarity of excipient dilution” value in data set [4] (20% in culture medium, listed as Sulfobutylether 4beta-CD) is on record as 710 mOsm.

The term viability denotes a read-out of living cells in per cent, often relative to untreated cells.
